Results published in patent publication US12590062B2, “PD-1/PD-L1 inhibitors” (Gilead Sciences, Inc., priority 2017, dated 2026).

Assays:
[1] = target: T1, interaction between the recombinant extracellular domain (ECD) of PD-1 and native cell-bound PD-L1 (Homo sapiens, UniProt Q9NZQ7); test: CHO/PD-L1 cell capture assay; assay type: cell-based; conditions: CHO cells overexpressing PD-L1, pre-incubated 1 hr with compound, captured on biotinylated Fc-PD-1 coated plates, 75 min at room temperature
T1 construct: expressed in transfected cells
T1 sequence (Q9NZQ7 19-290): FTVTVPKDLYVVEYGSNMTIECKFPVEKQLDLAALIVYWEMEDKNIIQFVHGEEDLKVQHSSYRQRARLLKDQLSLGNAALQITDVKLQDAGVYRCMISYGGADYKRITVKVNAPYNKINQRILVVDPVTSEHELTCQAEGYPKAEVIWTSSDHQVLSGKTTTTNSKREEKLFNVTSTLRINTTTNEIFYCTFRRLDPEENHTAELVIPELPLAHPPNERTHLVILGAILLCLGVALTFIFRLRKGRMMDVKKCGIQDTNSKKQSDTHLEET
Description: EC50-CHO/PD-L1-Capture Assay:
Compounds were tested in a cell capture assay to determine if they can specifically block the interaction between the recombinant extracellular domain (ECD) of PD-1 and native cell-bound PD-L1. Binding affinity of stable CHO cells overexpressing PD-L1 with its cognate recombinant ligand coated on plates was measured by counting the number of ‘captured’ cells. High-capacity streptavidin- coated plates were incubated with biotylated-Fc-PD-1 for 2 hours in PBS. Unbound ligand was washed out. CHO-PD-L1 cells (resuspended in PBS pH 7.4, 0.5 mM EDTA, and 2% bovine serum albumin) were pre-incubated for 1 hr with compound, dispensed into each PD-1 ECD coated well and then incubated for 75 min at room temperature. To stop the capture assay, a fixative/staining solution (final concentrations are 1.3% glutaraldehyde and 1.67 μM Draq5) was gently added to the cells and incubated for 2 hrs at room temperature. Unbound cells were then washed out and ‘captured’ cells were enumerated using a high-content microscopy system. EC50 values were calculated from the fit of the dose-response curves to a four-parameter equation. Representative data are shown below in Table 2.

[2] = target: T2, PD-1/PD-L1 interaction (Homo sapiens, UniProt Q9NZQ7); test: PD-1/PD-L1 NFAT reporter co-culture assay; assay type: cell-based; conditions: Jurkat PD-1 NFAT-luciferase cells co-cultured with aAPC-PD-L1 CHO cells, 6 hrs at 37° C.; read-out: EC50 NFAT Luciferase
T2 construct: expressed in transfected cells; host or cells: CHO cells (aAPC-PD-L1) co-cultured with Jurkat cells overexpressing PD-1 and an NFAT-luciferase reporter
T2 sequence (Q9NZQ7 19-290): as above
How it was run: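 Jurkat cells overexpressing PD-1 with NFAT-driven luciferase were mixed with compound in RPMI 1640/2% FBS and seeded onto overnight-plated CHO aAPC-PD-L1 cells expressing surface anti-CD3 and PD-L1. Co-culture ran 6 h at 37 °C; luminescence read with ONE-Glo; EC50 from four-parameter fit.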

SMILES	EC50 [1]	EC50 [2]
Cc1c(COc2nc(OCCC(N)=O)c(CNC[C@@H](O)CC(=O)O)cc2Br)cccc1-c1cccc(COc2nc(OCCC(N)=O)c(CNC[C@@H](O)CC(=O)O)cc2Br)c1C [Example 145, (3S,3′S)-4,4′-((((((2,2′-dimethyl-[1,1′-biphenyl]-3,3′-diyl)bis(methylene))bis(oxy))bis(2-(3-amino-3-oxopropoxy)-5-bromopyridine-6,3-diyl))bis(methylene))bis(azanediyl))bis(3-hydroxybutanoic acid)]	0.0636 µM	0.362 µM
COc1nc(OCc2cccc(-c3cccc(COc4nc(OC)c(CNC5(C#N)CCC5)cc4Cl)c3C)c2C)c(Cl)cc1CNC1(C#N)CCC1 [Example 231, 1,1′-((((((2,2′-dimethyl-[1,1′-biphenyl]-3,3′-diyl)bis(methylene))bis(oxy))bis(5-chloro-2-methoxypyridine-6,3-diyl))bis(methylene))bis(azanediyl))bis(cyclobutane-1-carbonitrile)]	0.277 µM	0.962 µM
COCCCOc1nc(OCc2cccc(-c3cccc(COc4nc(OCCCOC)c(CNC[C@@H](O)CC(=O)O)cc4Br)c3C)c2C)c(Br)cc1CNC[C@@H](O)CC(=O)O [Example 149, (3S,3′S)-4,4′-((((((2,2′-dimethyl-[1,1′-biphenyl]-3,3′-diyl)bis(methylene))bis(oxy))bis(5-bromo-2-(3-methoxypropoxy)pyridine-6,3-diyl))bis(methylene))bis(azanediyl))bis(3-hydroxybutanoic acid)]	0.275 µM	0.668 µM
Cc1c(COc2nc(OCC3CCO3)c(CNC[C@@H](O)CC(=O)O)cc2Br)cccc1-c1cccc(COc2nc(OCC3CCO3)c(CNC[C@@H](O)CC(=O)O)cc2Br)c1C (stereo partly drawn) [Example 131, (3S,3′S)-4,4′-((((((2,2′-dimethyl-[1,1′-biphenyl]-3,3′-diyl)bis(methylene))bis(oxy))bis(5-bromo-2-(oxetan-2-ylmethoxy)pyridine-6,3-diyl))bis(methylene))bis(azanediyl))bis(3-hydroxybutanoic acid)]	0.231 µM	0.964 µM
Cc1c(COc2cc(OCc3cncc(C#N)c3)c(CNC[C@@H](O)CC(=O)O)cc2Cl)cccc1-c1cccc(-c2ccc(OCCNC[C@@H](O)CC(=O)O)cc2F)c1C [Example 111, (S)-4-((4-((4″-(2-(((S)-3-carboxy-2-hydroxypropyl)amino)ethoxy)-2″-fluoro-2,2′-dimethyl-[1,1′:3′,1″-terphenyl]-3-yl)methoxy)-5-chloro-2-((5-cyanopyridin-3-yl)methoxy)benzyl)amino)-3-hydroxybutanoic acid]	0.0457 µM	0.129 µM
COc1nc(O[C@H]2CCc3c(-c4cccc5c4CC[C@@H]5Oc4nc(OC)c(CNCC(=O)O)cc4Cl)cccc32)ccc1CNCC(=O)O [Example 1, ((6-(((1S,1′S)-1′-((5-(((carboxymethyl)amino)methyl)-3-chloro-6-methoxypyridin-2-yl)oxy)-2,2′,3,3′-tetrahydro-1H,1′H-[4,4′-biinden]-1-yl)oxy)-2-methoxypyridin-3-yl)methyl)glycine]	0.382 µM	0.516 µM
COc1nc(O[C@H]2CCc3c(-c4cccc5c4CC[C@@H]5Oc4nc(OC)c(CNCC(=O)O)cc4Cl)cccc32)c(Cl)cc1CNCC(=O)O [Example 2, 2,2′-((((((1S,1′S)-2,2′,3,3′-tetrahydro-1H,1′H-[4,4′-biindene]-1,1′-diyl)bis(oxy))bis(5-chloro-2-methoxypyridine-6,3-diyl))bis(methylene))bis(azanediyl))diacetic acid]	1.27 µM	0.456 µM
COc1nc(OCc2cccc(-c3cccc(COc4nc(OC)c(CN[C@@H]5CC[C@H](C(=O)O)C5)cc4Cl)c3C)c2C)c(Cl)cc1CN[C@@H]1CC[C@H](C(=O)O)C1 [Example 185, (1S,1′S,3R,3′R)-3,3′-((((((2,2′-dimethyl-[1,1′-biphenyl]-3,3′-diyl)bis(methylene))bis(oxy))bis(5-chloro-2-methoxypyridine-6,3-diyl))bis(methylene))bis(azanediyl))bis(cyclopentane-1-carboxylic acid)]	0.277 µM	0.195 µM
COc1nc(OCc2cccc(-c3cccc(COc4nc(OC)c(C[N+](C)(C)CC(=O)O)cc4Cl)c3C)c2C)c(Cl)cc1C[N+](C)(C)CC(=O)O [Example 78, 1,1′-((((2,2′-dimethyl-[1,1′-biphenyl]-3,3′-diyl)bis(methylene))bis(oxy))bis(5-chloro-2-methoxypyridine-6,3-diyl))bis(N-(carboxymethyl)-N,N-dimethylmethanaminium)]	0.187 µM	0.395 µM
COc1nc(OCc2cccc(-c3cccc(COc4nc(OC)c(CNC[C@@H](F)C(=O)O)cc4Cl)c3C)c2C)c(Cl)cc1CNC[C@@H](F)C(=O)O [Example 179, (2R,2′R)-3,3′-((((((2,2′-dimethyl-[1,1′-biphenyl]-3,3′-diyl)bis(methylene))bis(oxy))bis(5-chloro-2-methoxypyridine-6,3-diyl))bis(methylene))bis(azanediyl))bis(2-fluoropropanoic acid)]	0.319 µM	0.655 µM
Cc1c(COc2cc(OCc3cncc(C#N)c3)c(CNC[C@@H](O)CC(=O)O)cc2Cl)cccc1-c1cccc(-c2ccc3cc(CNC[C@@H](O)CC(=O)O)ccc3c2)c1C [Example 31, (S)-4-(((6-(3′-((4-((((S)-3-carboxy-2-hydroxypropyl)amino)methyl)-2-chloro-5-((5-cyanopyridin-3-yl)methoxy)phenoxy)methyl)-2,2′-dimethyl-[1,1′-biphenyl]-3-yl)naphthalen-2-yl)methyl)amino)-3-hydroxybutanoic acid]	0.0301 µM	0.687 µM
CNC(=O)CCOc1nc(OCc2cccc(-c3cccc(COc4nc(OCCC(=O)NC)c(CNC[C@@H](O)CC(=O)O)cc4Cl)c3C)c2C)c(Cl)cc1CNC[C@@H](O)CC(=O)O [Example 134, (3S,3′S)-4,4′-((((((2,2′-dimethyl-[1,1′-biphenyl]-3,3′-diyl)bis(methylene))bis(oxy))bis(5-chloro-2-(3-(methylamino)-3-oxopropoxy)pyridine-6,3-diyl))bis(methylene))bis(azanediyl))bis(3-hydroxybutanoic acid)]	0.112 µM	0.66 µM
Cc1c(COc2cc(OCc3cncc(C#N)c3)c(CNC[C@@H](O)CC(=O)O)cc2Cl)cccc1-c1cccc(-c2ccc(OCCNC[C@@H](O)CC(=O)O)c(Cl)c2)c1C [Example 288, (S)-4-((4-((4″-(2-(((S)-3-carboxy-2-hydroxypropyl)amino)ethoxy)-3″-chloro-2,2′-dimethyl-[1,1′:3′,1″-terphenyl]-3-yl)methoxy)-5-chloro-2-((5-cyanopyridin-3-yl)methoxy)benzyl)amino)-3-hydroxybutanoic acid]	0.0103 µM	0.057 µM
COc1nc(O[C@H]2CCc3c(-c4cccc5c4CC[C@@H]5Oc4nc(OC)c(CNC[C@@H](O)CC(=O)O)cc4Br)cccc32)c(Br)cc1CNCCO [Example 8, (S)-4-(((5-bromo-6-(((1S,1′S)-1′-((3-bromo-5-(((2-hydroxyethyl)amino)methyl)-6-methoxypyridin-2-yl)oxy)-2,2′,3,3′-tetrahydro-1H,1′H-[4,4′-biinden]-1-yl)oxy)-2-methoxypyridin-3-yl)methyl)amino)-3-hydroxybutanoic acid]	0.0797 µM	0.29 µM
COc1nc(O[C@H]2CCc3c(-c4cccc5c4CC[C@@H]5Oc4nc(OC)c(CNCCO)cc4Br)cccc32)c(Br)cc1CNCCO [Example 10, 2,2′-((((((1S,1′S)-2,2′,3,3′-tetrahydro-1H,1′H-[4,4′-biindene]-1,1′-diyl)bis(oxy))bis(5-bromo-2-methoxypyridine-6,3-diyl))bis(methylene))bis(azanediyl))bis(ethan-1-ol)]	0.185 µM	0.502 µM
C[C@](CO)(NCc1cc(Br)c(OCc2cccc(-c3cccc(COc4nc(OCc5cncc(C#N)c5)c(CN[C@](C)(CO)C(=O)O)cc4Br)c3Cl)c2Cl)nc1OCc1cncc(C#N)c1)C(=O)O [Example 198, (2R,2′R)-2,2′-((((((2,2′-Dichloro-[1,1′-biphenyl]-3,3′-diyl)bis(methylene))bis(oxy))bis(5-bromo-2-((5-cyanopyridin-3-yl)methoxy)pyridine-6,3-diyl))bis(methylene))bis(azanediyl))bis(3-hydroxy-2-methylpropanoic acid)]	0.101 µM	0.069 µM
COc1nc(OCc2cccc(-c3cccc(COc4nc(OC)c(CNC[C@@H](O)CC(=O)O)cc4C4CC4)c3C)c2C)c(C2CC2)cc1CNC[C@@H](O)CC(=O)O [Example 55, (3S,3′S)-4,4′-((((((2,2′-dimethyl-[1,1′-biphenyl]-3,3′-diyl)bis(methylene))bis(oxy))bis(5-cyclopropyl-2-methoxypyridine-6,3-diyl))bis(methylene))bis(azanediyl))bis(3-hydroxybutanoic acid)]	0.315 µM	1.52 µM
